± gives the expanded uncertainty stated by the source.
Legend:
[1] = wn = mass fraction of the nth substance listed; settings: 298.15 K, 100 kPa, Liquid; for viscosity: Falling or rolling sphere viscometry; for mass density: Vibrating tube method
[2] = refractive index (Na D-line) (dimensionless); wn = mass fraction of the nth substance listed; settings: 298.15 K, 100 kPa, Liquid, Standard Abbe refractometry
[3] = 298.15 K; 100 kPa; Liquid; Falling or rolling sphere viscometry
[4] = refractive index (Na D-line) (dimensionless); settings: 298.15 K; 100 kPa; Liquid; Standard Abbe refractometry

O=C([O-])[C@H](O)[C@@H](O)C(=O)[O-].[K+].[K+] [dipotassium L-tartrate] + O
Settings | mass density, [1] [kg/m3] | refractive index, [2] | viscosity, [1] [mPa·s]
w1 = 0.02 | 1006 ± 11 | 1.3345 ± 0.0024 | 0.929 ± 0.037
w1 = 0.04 | 1019.6 ± 14 | 1.3374 ± 0.0029 | 0.965 ± 0.037
w1 = 0.06 | 1033.3 ± 14 | 1.3403 ± 0.0029 | 0.998 ± 0.039
w1 = 0.08 | 1046.9 ± 14 | 1.3432 ± 0.0029 | 1.04 ± 0.048
w1 = 0.1 | 1060.6 ± 14 | 1.3461 ± 0.0029 | 1.09 ± 0.045
w1 = 0.15 | 1094.7 ± 14 | 1.3533 ± 0.0029 | 1.191 ± 0.047
w1 = 0.2 | 1128.9 ± 14 | 1.3606 ± 0.0029 | 1.313 ± 0.056
w1 = 0.25 | 1163 ± 14 | 1.3678 ± 0.0029 | 1.46 ± 0.058
w1 = 0.3 | 1197.1 ± 14 | 1.375 ± 0.0029 | 1.59 ± 0.064
w1 = 0.4 | 1265.4 ± 14 | 1.3895 ± 0.0029 | 1.91 ± 0.068

O [water]
Settings | refractive index | viscosity [mPa·s]
[3] | – | 0.894 ± 0.011
[4] | 1.3327 ± 0.0004 | –

O [water] + O=C([O-])[C@H](O)[C@@H](O)C(=O)[O-].[K+].[K+]
w2 = 0
Settings | refractive index | viscosity [mPa·s]
[1] | – | 0.894 ± 0.011
[2] | 1.3327 ± 0.0004 | –

— the NIST ThermoML archive (doi:10.1021/acs.jced.7b00722)
